Data as given in patent publication US12589158B2 (priority 2022, dated 2026).
Where a SMILES comes first, the peptide text is derived from it.

Assays:
human GLP-1 receptor = biological target: T1, human GLP-1 receptor (Homo sapiens, UniProt P43220); test: In vitro binding activity to human GLP-1 receptor ([125I]GLP-1, crude cellular membranes); conditions: ratio of the Ki value of the endogenous ligand to the Ki value of the test compound; larger = stronger binding
T1 construct: expressed in transfected cells; crude membranes
Protocol: 89 μL of membrane dissolved in binding buffer (50 mM Hepes, pH 7.4, 5 mM MgCl2, 5 mM EDTA, 0.005% TWEEN, 0.005% HSA) is transferred to a 96-well test plate (5 μg/well). The compound is serially diluted in DMSO, and then, 1 μL of the diluted compound or 100% DMSO is added to the test plate containing the membrane solution. 10 μL of [^125I] […] The test plate is left at room temperature for 90 minutes. The membrane complexes are harvested into a GF/B plate pre-coated with 0.5% PEI by using a Cell Harvester, and washed for 3 times with 500 μL of pre-cooled elution buffer (50 mM Hepes, pH 7.4, 500 mM NaCl) at 4° C. After drying at 37° C. for 2 hours, 50 μL of scintillation fluid is added to each well. The plate is read with a MicroBeta2 scintillation counter after sealing and settling for at least 1 hour so as to determine the membrane bound radioligand level.
(§1) The absolute IC50 concentration of the compound is derived by non-linear regression of the binding percent of [^125I] […] The IC50 concentration is converted to Ki (Ki is the inhibition constant) using the Cheng-Prusoff equation.

human GIP receptor = biological target: T2, human GIP receptor (Homo sapiens, UniProt P48546); test: In vitro binding activity to human GIP receptor ([125I]GIP, crude cellular membranes); conditions: ratio of the Ki value of the endogenous ligand to the Ki value of the test compound; larger = stronger binding
T2 construct: expressed in transfected cells; crude membranes
T2 sequence (P48546 22-466): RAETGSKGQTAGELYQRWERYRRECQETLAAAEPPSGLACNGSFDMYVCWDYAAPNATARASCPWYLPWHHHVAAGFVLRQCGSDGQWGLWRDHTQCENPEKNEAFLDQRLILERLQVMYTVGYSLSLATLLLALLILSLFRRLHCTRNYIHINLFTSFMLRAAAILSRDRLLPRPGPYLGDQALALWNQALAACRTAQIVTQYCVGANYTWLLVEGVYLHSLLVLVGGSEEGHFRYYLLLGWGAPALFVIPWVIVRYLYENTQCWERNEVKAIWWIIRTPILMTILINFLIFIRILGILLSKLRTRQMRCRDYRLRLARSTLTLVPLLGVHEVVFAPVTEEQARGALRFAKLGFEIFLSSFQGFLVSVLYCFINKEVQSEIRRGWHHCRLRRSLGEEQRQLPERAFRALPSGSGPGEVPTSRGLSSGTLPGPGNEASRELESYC
Protocol: The compound is serially diluted in DMSO, and then, 2 μL of the diluted compounds or 100% DMSO is added to the test plate containing the membrane solution. […] The test plate is left at room temperature for 90 minutes. […] After drying at 37° C. for 2 hours, 50 μL of scintillation fluid is added to each well. The plate is read with a MicroBeta2 scintillation counter after sealing and settling for at least 1 hour so as to determine the membrane bound radioligand level.
as §1

db/db mice = test: Pharmacodynamics in db/db mice, single subcutaneous administration (blood glucose); type: in vivo; conditions: Group 1, single s.c. 10 nmol/kg, longest time with random blood glucose P<0.05 vs. vehicle
Protocol: The “inhibition of blood glucose AUC” as disclosed in the present invention is the reduction percentage of blood glucose AUC in the group taken the test compound as compared with the group taken the Vehicle. Inhibition of blood glucose AUC=(blood glucose AUCVehicle-blood glucose AUCtest compound)/blood glucose AUCVehicle.
In this study, 8-9 week old male db/db mice are used. The db/db mice are placed in an individual ventilated cage (IVC) facility with a controlled temperature (20-26° C.) and humidity (40-70%) and a controlled 12h: 12 h light-dark cycle. The mice received food and water ad libitum. Blood is sampled at the tail tip, and the fasting blood glucose is measured by a Roche blood glucose meter. The mice are randomly divided into groups according to the initial blood glucose and initial body weight (n=6/group), and each group had similar body weight and blood glucose.
After a single subcutaneous administration, the random blood glucoses are recorded at the set time point (0 to 120 hours, the recording of the random blood glucose is stopped until there is no difference between the random blood glucose of the compound and that of the vehicle group), and the daily body weight and food intake are also recorded. The data results are statistically analyzed using GraphPad Prism8, and the statistical differences among the groups are analyzed following a T-Test. […]

T1 sequence (P43220 24-463): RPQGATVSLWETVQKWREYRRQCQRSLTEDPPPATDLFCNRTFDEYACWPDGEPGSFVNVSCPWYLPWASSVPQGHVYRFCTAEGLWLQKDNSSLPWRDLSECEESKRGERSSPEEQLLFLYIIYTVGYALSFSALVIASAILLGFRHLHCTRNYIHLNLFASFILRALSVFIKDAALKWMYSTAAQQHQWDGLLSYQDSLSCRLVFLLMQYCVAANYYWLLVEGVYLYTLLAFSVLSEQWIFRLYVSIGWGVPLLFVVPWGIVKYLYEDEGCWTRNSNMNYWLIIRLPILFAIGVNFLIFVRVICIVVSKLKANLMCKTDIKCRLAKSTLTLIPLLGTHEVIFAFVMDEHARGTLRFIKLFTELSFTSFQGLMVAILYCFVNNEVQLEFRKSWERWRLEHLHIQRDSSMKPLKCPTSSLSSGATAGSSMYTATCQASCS

With `CC[C@H](C)[C@H](NC(=O)C(C)(C)NC(=O)[C@H](Cc1ccc(O)cc1)NC(=O)[C@H](CC(=O)O)NC(=O)[C@H](CO)NC(=O)[C@@H](NC(=O)C(C)(Cc1ccccc1)NC(=O)[C@@H](NC(=O)CNC(=O)[C@H](CCC(=O)O)NC(=O)C(C)(C)NC(=O)[C@@H](N)Cc1ccc(O)cc1)[C@@H](C)O)[C@@H](C)O)C(=O)NC(C)(C)C(=O)N[C@@H](CC(C)C)C(=O)N[C@@H](CC(=O)O)C(=O)N[C@@H](CCCCN)C(=O)N[C@@H](CCC(N)=O)C(=O)N[C@@H](C)C(=O)N[C@@H](CCC(N)=O)C(=O)N[C@@H](C)C(=O)N[C@@H](CCC(=O)O)C(=O)N[C@@H](Cc1ccccc1)C(=O)N[C@H](C(=O)N[C@@H](CCCCN)C(=O)N[C@@H](Cc1c[nH]c2ccccc12)C(=O)N[C@@H](CC(C)C)C(=O)N[C@@H](CC(C)C)C(=O)N[C@@H](CCCCN)C(=O)NCC(=O)NCC(=O)N1CCC[C@H]1C(=O)N[C@@H](CO)C(=O)N[C@@H](CO)C(=O)NCC(=O)N[C@@H](C)C(=O)N1CCC[C@H]1C(=O)N1CCC[C@H]1C(=O)N1CCC[C@H]1C(=O)N[C@@H](CO)C(=O)N[C@@H](CCCCN)C(N)=O)C(C)C` (stereo partly drawn) [P001, reference compound] (HELM PEPTIDE1{Y.[Aib].E.G.T.[CC(Cc1ccccc1)(N[*:1])C(=O)[*:2]].T.S.D.Y.[Aib].I.[Aib].L.D.K.Q.A.Q.A.E.F.V.K.W.L.L.K.G.G.P.S.S.G.A.P.P.P.S.K.[am]}$$$$V2.0; N-terminus assumed) the “GLP-1R Ki ratio” value (human GLP-1 receptor) was 19.52, the “GIPR Ki ratio” value (human GIP receptor) was 8.82 and the “Hypoglycemic Duration” value (db/db mice) was 32 h.
